Experimental data reported in US8350015B2, “Cyanine dye” (Kabushiki Kaisha Hayashibara Seibutsu Kagaku Kenkyujo, priority 2004, dated 2013).

Assay: Optical resistance of cyanine dye thin membrane exposed to xenon lamp
Type: physicochemical
Conditions: xenon lamp 180 W/m^2, exposure 5.5 hours
Method: The resulting solution was poured dropwise on one side of a polished glass plate (5 cm×5 cm) and homogenously spread over the surface of the plate by turning the plate at 1,000 rpm for one minute. Successively, thin membrane of the cyanine dye in this invention was formed on the glass plate by drying in the ventilation of warm and cooled air in this order. Immediately after determining optical transmittance (T0) of the cyanine dye in the form of thin membrane at absorption maximum (about 450 nm) wavelength, the membrane was exposed to xenon lamp (light-irradiation energy of 180 W/m^2 on the plate surface) in the ventilation of cooled air while placing […] xenon lamp with a prescribed distance away from the glass plate, after which the membrane was immediately determined for optical transmittance (T) at absorption maximum wavelength. Thereafter, residual dye rate (%) was calculated by substituting the obtained optical transmittances (T and T0) to Formula 1. In parallel, another thin membrane formed by cyanine dye represented by Chemical Formula 14 (Control 1), a additional thin membrane formed by cyanine dye represented by Chemical Formula 16 (Control 2), a further thin membrane formed by cyanine dye represented by Chemical Formula 14 and an equimolar azometallic complex represented by Chemical Formula 15 as an optical resistance-improving agent (Control 3), and one more additional thin membrane formed by cyanine dye represented by Chemical Formula 16 and an equimolar azometallic complex represented by Chemical Formula 15 as an optical resistance-improving agent (Control 4) were determined for optical resistance similarly as above.

[1] = thin membrane on glass plate, no optical resistance-improving agent, transmittance at absorption maximum (about 450 nm)
[2] = thin membrane with equimolar azometallic complex Chemical Formula 15 as optical resistance-improving agent

SMILES	Residual dye rate (%) [1] [%]	Residual dye rate (%) [2] [%]
CN1C(=CC2=[N+](C)c3ccccc3C2(C)C)C(C)(C)c2ccccc21 [Chemical Formula 14]	29.3	91.7
CN1C(=CC2=[N+](C)c3ccc4ccccc4c3C2(C)C)C(C)(C)c2c1ccc1ccccc21 [Chemical Formula 16]	30.1	92.2
